Laboratory results taken from ChEMBL document CHEMBL5329203, “Target discovery of bioactive natural products with native-compound-coupled CNBr-activated Sepharose 4B beads (NCCB): Applications, mechanisms and outlooks” (Bioorg Med Chem, 2023).

Experiments:
[1] = molecular target: Small ribosomal subunit protein uS2 (Homo sapiens, UniProt P08865); test: Binding affinity to His-tagged Laminin receptor in human A549 cells assessed as dissociation constant by surface plasmon resonance assay
[2] = molecular target: Tyrosine-protein kinase Fyn (Homo sapiens, UniProt P06241); test: Binding affinity to Fyn (unknown origin) assessed as dissociation constant
Chain of Tyrosine-protein kinase Fyn (P06241 whole entry): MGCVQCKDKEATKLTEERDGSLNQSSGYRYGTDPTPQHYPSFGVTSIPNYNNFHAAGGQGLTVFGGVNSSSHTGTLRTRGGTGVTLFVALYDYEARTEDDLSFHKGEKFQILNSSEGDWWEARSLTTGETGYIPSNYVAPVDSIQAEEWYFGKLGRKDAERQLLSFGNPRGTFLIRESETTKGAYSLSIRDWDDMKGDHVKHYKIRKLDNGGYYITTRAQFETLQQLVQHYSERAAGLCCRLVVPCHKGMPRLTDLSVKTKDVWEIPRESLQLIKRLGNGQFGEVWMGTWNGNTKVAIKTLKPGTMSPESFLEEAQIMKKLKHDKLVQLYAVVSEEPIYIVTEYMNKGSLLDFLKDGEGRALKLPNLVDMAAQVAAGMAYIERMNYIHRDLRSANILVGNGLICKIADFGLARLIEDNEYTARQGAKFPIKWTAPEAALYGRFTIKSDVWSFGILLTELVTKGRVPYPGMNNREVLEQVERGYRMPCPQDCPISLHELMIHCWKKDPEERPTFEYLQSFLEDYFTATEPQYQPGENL

[3] = molecular target: T1, Latent membrane protein 1 (Human herpesvirus 4 (strain B95-8), UniProt P03230); test: Binding affinity to Epstein Barr virus LMP1 assessed as dissociation constant; parameters: species or system human gammaherpesvirus 4
T1 sequence (P03230 whole entry): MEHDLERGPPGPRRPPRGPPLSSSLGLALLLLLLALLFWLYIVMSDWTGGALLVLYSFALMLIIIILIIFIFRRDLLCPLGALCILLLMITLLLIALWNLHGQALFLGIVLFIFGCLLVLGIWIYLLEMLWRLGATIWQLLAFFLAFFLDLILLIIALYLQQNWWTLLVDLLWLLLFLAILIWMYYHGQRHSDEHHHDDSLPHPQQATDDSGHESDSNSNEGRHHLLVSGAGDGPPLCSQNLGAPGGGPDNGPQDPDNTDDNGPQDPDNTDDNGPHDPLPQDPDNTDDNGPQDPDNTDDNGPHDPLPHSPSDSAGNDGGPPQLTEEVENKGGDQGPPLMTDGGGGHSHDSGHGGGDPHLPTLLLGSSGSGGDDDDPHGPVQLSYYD

## O=C(O[C@@H]1Cc2c(O)cc(O)cc2O[C@@H]1c1cc(O)c(O)c(O)c1)c1cc(O)c(O)c(O)c1 [EPIGALOCATECHIN GALLATE]
[1]
  Kd: 39.9 nM
[2]
  Kd: 367 nM
[3]
  Kd: 360 nM
